This experiment concerns collagenase. Briefly: collagenase inhibition, acetyl 14C collagen hydrolysis (procedure of Sellers et al.). Format: biochemical. The note with it: 2mM inhibitor, 35° C., 5 to 18 hours, Tris-CaCl2 pH 7.4, vs control devoid of inhibitor. The protocol: The inhibitory effect of the compounds of this invention toward collagenase was determined following the procedure of Sellers et al., Biochem. J. 167 353-360 (1977) whereby the 2mM of the inhibitor being tested is incubated at 35° C. for from 5 to 18 hours (depending upon the potency of the collagenase) with collagen and collagenase (buffered with Tris®--CaCl2; pH 7.4). The collagen is acetyl ^14 C collagen. The samples are centrifuged and an aliquot removed for assay on a scintillation counter. Because native collagen forms insoluble fibrils under the test conditions, the supernatant liquid contains radioactivity as a measure of hydrolysis. The collagenase activity in the presence of 2mM inhibitor is compared to activity in a control devoid of hinibitor and the results reported as percent inhibition of collagenase activity. Each of the compounds of this invention have been established as active collagenase inhibitors by the test procedure.

Residues, ends and D or L forms follow the SMILES beside them.

Take `CC(=O)NCC(=O)N[C@@H](CS)C(=O)NCC(=O)N[C@@H](CCC(=O)O)C(=O)N[C@@H](CCC(=O)O)C(N)=O` [CH3 CO-Gly-L-Cys-Gly-L-Glu-L-Glu-NH2] (Ac-GCGEE-NH2): the Percent collagenase inhibition worked out at 80%.
